Experiment in all cases: NCI tumour cell line growth inhibition, 48 h
Test [1] deals with CAKI-1.
Test [2] relates to MCF7.
Test [3] deals with SK-MEL-5.
The test system of test [4] is OVCAR-8.
Test [5] relates to UACC-62.
The test system of test [6] is HT-29.
Test [7] concerns SK-OV-3.
Test [8] concerns SF-295.
Test [9] relates to SK-MEL-28.
Test [10] has as its system HL-60.
In test [11] the test system is A498.
Test [12] has as its system KM12.
Test [13] deals with OVCAR-5.
The subject of test [14] is NCI/ADR-RES.
The subject of test [15] is NCI-H460.
In test [16] the test system is SN12C.
Test [17] deals with M14.
Test [18] deals with SF-268.
Test [19] relates to ACHN.
For test [20], the system named is SR.

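Growth conditions: 96-well plates. Treatment: test compound, 48 hours, 5 concentrations. Analysis: linear interpolation between bracketing concentrations; unreached endpoints set to highest concentration. The concentration for 50% growth inhibition is given as GI50.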 The source made the active and inactive calls. Rule as the data show it: active = GI50 up to about 1.1 µM and inactive = higher.

The values that follow come from ChEMBL document CHEMBL1201862, “PubChem BioAssay data set” (2004).

With `CC(C)(O)C1CC[C@]2(C)[C@H]3CC[C@@H]4[C@@]5(C)CCCC(C)(C)[C@@H]5CC[C@@]4(C)[C@]3(C)CC[C@@H]12` (stereo partly drawn), the GI50 in test [1], in [2], in test [3], in [4], in test [5] and in [6] was > 100 µM (inactive) in each case. Besides, the GI50 in test [7], in test [8], in [9], in test [10], in test [11] and in [12] was > 100 µM (inactive) each time. Also, the GI50 in [13], in test [14], in [15], in test [16], in test [17] and in test [18] was > 100 µM (inactive) in each case. In addition, the GI50 in [19] was > 100 µM (inactive).

In the case of `O=C(O)CCCn1nnc2c(=O)[nH][nH]c(=O)c21`, the GI50 in test [1], in test [2], in test [3], in [4], in test [6] and in test [8] was > 100 µM (inactive) each time. Also, the GI50 in test [9], in test [20], in test [10], in test [12], in test [13] and in test [14] was > 100 µM (inactive) each time. The GI50 in test [15], in test [16], in test [17] and in test [19] was > 100 µM (inactive) in each case.

With `COc1cc2c(c3oc4c(O)cccc4c(=O)c13)CC(C(C)(O)CO)O2` (stereo not drawn), the GI50 in test [1] was 39.9 µM (inactive); in test [2], 19.5 µM (inactive); in test [3], 53 µM (inactive); in test [4] it was 53.1 µM (inactive); in test [5], 27.1 µM (inactive); in test [6], 43.8 µM (inactive). In addition, the GI50 was > 100 µM (inactive) in test [8]; > 100 µM (inactive) in [9]; 34.1 µM (inactive) in test [20]; 83.2 µM (inactive) in [10]; > 100 µM (inactive) in test [13]; > 100 µM (inactive) in test [14]. The GI50 is 96.8 µM (inactive) in test [15]; 60.1 µM (inactive) in [16]; > 100 µM (inactive) in test [17]; 46.8 µM (inactive) in test [18]; 59.6 µM (inactive) in test [19].

As for `CC(=O)N1c2ccccc2Sc2cc(C(O)(C(F)(F)F)C(F)(F)F)ccc21`, the GI50 in [1] is > 10 µM (inactive); in test [2] it was > 10 µM (inactive); in [3], 7.26 µM (inactive); in test [4], > 10 µM (inactive); in [5], > 10 µM (inactive); in [6] it was > 10 µM (inactive). Also, the GI50 in test [7], in [8], in test [9], in test [10], in test [11] and in test [12] was > 10 µM (inactive) each time. For the same compound, the GI50 in [13], in test [14], in test [15], in test [16], in test [17] and in test [18] was > 10 µM (inactive) in each case. For the same compound, in [19], the GI50 was > 10 µM (inactive).

Take `CCOC(=O)CCC(NC(=O)c1ccc(Nc2cnc3cc(C(F)(F)F)ccc3n2)cc1)C(=O)OCC` (stereo not drawn): the GI50 was 24.7 µM (inactive) in test [1]; > 31.6 µM (inactive) in test [2]; > 100 µM (inactive) in test [3]; 27.2 µM (inactive) in test [4]; > 10 µM (inactive) in [5]; > 100 µM (inactive) in test [6]. The GI50 was 12.8 µM (inactive) in test [8]; > 100 µM (inactive) in test [9]; > 100 µM (inactive) in test [20]; > 100 µM (inactive) in test [10]; 61.9 µM (inactive) in test [12]; > 100 µM (inactive) in [13]. For the same compound, the GI50 in [14] is > 100 µM (inactive); in test [15], 12.6 µM (inactive); in test [16] it was > 100 µM (inactive); in test [17] it was 35.9 µM (inactive); in test [18], 14.1 µM (inactive); in test [19] it was 63.2 µM (inactive).

Take `O=S(=O)(O)c1ccc(/N=N/c2ccc3c(S(=O)(=O)O)cccc3c2O)c2ccccc12`: the GI50 in test [1], in test [2], in test [3], in test [4], in test [5] and in test [6] was > 100 µM (inactive) in each case. Besides, the GI50 in test [7], in test [8], in test [9], in [11], in test [12] and in test [13] was > 100 µM (inactive) each time. The GI50 in test [14], in test [16], in [17], in [18] and in test [19] was > 100 µM (inactive) each time.

`CC(C)(C)C(=O)OCOP(=O)(OCOC(=O)C(C)(C)C)OCC1OC(n2ccc(=O)[nH]c2=O)C(N=[N+]=[N-])C1O` (stereo not drawn): the GI50 in test [1] is 10.4 µM (inactive); in test [2], 3.81 µM (inactive); in [3], 4.9 µM (inactive); in [4], 3.06 µM (inactive); in test [5], 2.88 µM (inactive); in [6], 3.44 µM (inactive). Also, the GI50 in test [8] was 12.7 µM (inactive); in [9] it was 11.6 µM (inactive); in test [20], 2.2 µM (inactive); in test [10], 2.14 µM (inactive); in [12], 3.11 µM (inactive); in test [13], 5.28 µM (inactive). The GI50 in [14] is 7.74 µM (inactive); in test [15] it was 3.08 µM (inactive); in test [16] it was 10.3 µM (inactive); in test [17] it was 3 µM (inactive); in [18], 0.757 µM (active); in test [19], 4.2 µM (inactive).

For `NC1CCN(c2nc3ccccc3c3c2CCCC3)CC1`, the GI50 in test [1] is 5.77 µM (inactive); in [2], 3.07 µM (inactive); in test [3] it was 2.57 µM (inactive); in [4], 13.2 µM (inactive); in test [5], 1.95 µM (inactive); in test [6], 2.11 µM (inactive). Moreover, the GI50 in test [7] was 12.6 µM (inactive); in test [8] it was 10.1 µM (inactive); in test [9], 2.73 µM (inactive); in test [10], 1.77 µM (inactive); in test [11], 10.3 µM (inactive); in [12], 4.07 µM (inactive). The GI50 in test [13] was 6.32 µM (inactive); in test [14], 12.2 µM (inactive); in [15] it was 3.5 µM (inactive); in [16], 8.67 µM (inactive); in test [17], 1.99 µM (inactive); in [18], 12.5 µM (inactive). For the same compound, the GI50 in test [19] is 8.87 µM (inactive).
